Measurements: patent US9963457B2, “Crystal of 5-((2-(6-amino)-9H-purin-9-yl)ethyl)amino)pentan-1-o1” (FOREVER CHEER INTERNATIONAL LIMITED, priority 2016, dated 2018)

Tests used:
[1] = test system: mice treated with yeast polysaccharide; assay: Elevated plus maze test (EPM), visceral pain; assay type: in vivo; settings: 3 mg/kg IP
Protocol: The visceral pain is induced by injecting yeast polysaccharide into the mice colony, and the yeast polysaccharide is derived from Saccharomyces cerevisiae (Sigma), wherein one kind of dextran is resident on the cell wall of the yeast and is identified as a protein-carbohydrate complex. Specifically, the mice were anesthetized after inhaling 1-3% isoflurane, and then a […] suspension of yeast polysaccharide (formulated as a 30 mg/ml solution in physiological saline) was injected into the colon of the mice by using a 24 mm long plastic feed needle within 2 minutes. The control group was injected with 0.1 ml physiological saline. The yeast polysaccharide or physiological saline was injected daily for 3 days. A visceral pain behavior test was carried out according to the Laird procedure. The number of times the mice licking the abdomen within 10 minutes was recorded, excluding other grooming behaviors, stretching of whole body, pressing the abdomen against the floor, and an 1-2-second arched posture. On day 1, 7 and 14 after the injection into the colon, an open field test was carried out from 9 am to 12 pm, and the entire test was a double-blind test. Prior to the behavioral test, the mice were acclimated for 30 minutes in an observation room. The mice were placed at the middle of a new open zone (43.2×43.2×30.5 cm^3) with micro light (<50 lux) and a fan. The movement distance, vertical count, movement count, stereotypic behavior count, and jumping count of animals were recorded within 30 minutes by means of an activity monitoring system equipped with multiple pairs of packaged light beam sets.
An anxious animal model of the prior art—the elevated plus maze test (EPM) was adopted. The mice were acclimated for 30 minutes in the room prior to the behavior observation. The EPM was composed of two open arms (250 lux) and two closed arms (350 lux) arranged opposite to each other. For each test, an individual animal was placed at the center of the test position and allowed to move freely. The test is carried out for 5 minutes. The number of entering the test position for each arm and the time spent therefore were recorded.
The EPM test tested the anxiety behavior of mice after the test treatment. The physiological saline, non-crystalline NB001 (3 mg/kg), the crystal of the present invention (3 mg/kg), and Gabapentin (30 mg/kg) as a positive control were intraperitoneally injected (IP) into the mice treated with yeast polysaccharide respectively. The behaviors of Mice were observed 28 days after the yeast polysaccharide treatment.

[2] = Stability test of the crystal form (stress, long-term and accelerated test); assay type: physicochemical
Protocol: Stress test, long-term stable test and accelerated stability test of the compound with the crystal form:
The stability of the compound with such a crystal form was investigated under conditions of a high temperature (60° C.), high humidity (92.5% RH), strong light irradiation (5 Klx), 40° C./75% RH (for accelerated test) and 25° C./60% RH (for long term test), in accordance with “Guidelines for Stability Testing of bulk pharmaceutical chemicals and formulation” (Chinese Pharmacopoeia 2015 Edition, four main sections of general requirements 9001).
10 mg of the crystalline sample involved in the Examples of the present invention was accurately weighed and placed on the bottom of a glass sample vial, and then spread out to form a thin layer. The samples for test under high temperature and high humidity conditions and for the long-term test were contained in vials sealed with aluminum-foil paper, and some small holes were made on the aluminum-foil paper to ensure that the sample can be fully in contact with ambient conditions; The samples for test under strong light irradiation and for the accelerated test were contained in vials sealed with screw bottle caps. The samples placed under different conditions were taken and analyzed on day 5, 10, and 30, and the analysis results were compared with the initial test results on day 0.

[3] = Accelerated test (40° C./75% RH), Day 30
[4] = Long-term test (25° C./60% RH), Day 30
[5] = Stress test, high humidity (92.5% RH), Day 5
[6] = Stress test, high humidity (92.5% RH), Day 10
[7] = Stress test, high humidity (92.5% RH), Day 30
[8] = Stress test, high temperature (60° C.), Day 5
[9] = Stress test, high temperature (60° C.), Day 10
[10] = Stress test, high temperature (60° C.), Day 30
[11] = Stress test, strong light irradiation (5 Klx), Day 10

Characteristics [2, 3]: off-white powder | Content (%) [2, 3]: 99.51% | Total Impurities (%) [2, 3]: 0.49% | Characteristics ([2]; Day 0): off-white powder | Content (%) ([2]; Day 0): 99.39% | Total Impurities (%) ([2]; Day 0): 0.61% | Characteristics [2, 4]: off-white powder | Content (%) [2, 4]: off- | Total Impurities (%) [2, 4]: 0.60% | Characteristics [2, 5]: off-white powder | Content (%) [2, 5]: 99.51% | Total Impurities (%) [2, 5]: 0.49% | Characteristics [2, 6]: off-white powder | Content (%) [2, 6]: 99.41% | Total Impurities (%) [2, 6]: 0.59% | Characteristics [2, 7]: off-white powder | Content (%) [2, 7]: 99.53% | Total Impurities (%) [2, 7]: 0.47% | Characteristics [2, 8]: off-white powder | Content (%) [2, 8]: 99.47% | Total Impurities (%) [2, 8]: 0.53% | Characteristics [2, 9]: off-white powder | Content (%) [2, 9]: 99.52% | Total Impurities (%) [2, 9]: 0.48% | Characteristics [2, 10]: off-white powder | Content (%) [2, 10]: 99.43% | Total Impurities (%) [2, 10]: 0.57% | Characteristics [2, 11]: off-white powder | Content (%) [2, 11]: 99.48% | Total Impurities (%) [2, 11]: 0.52% | stability under various test conditions ([2]; all test conditions of Table 5): good
SMILES: Nc1ncnc2c1ncn2CCNCCCCCO [New NB001, 5-(((2-(6-amino)-9H-purin-9-yl)ethyl)amino)pentan-1-ol]
therapeutic effect in EPM test as compared with the positive control group ([1]; Table 7, listed as the crystal of the present invention): extremely significant | % time in the open arm ([1]; Visceral pain, 3 mg/kg): 10.3 ± 1.2 (8) %
